Tests used:
[1] = Liver microsome metabolic stability; type: in vitro ADME
Method: An appropriate amount of SD rat and human liver microsomal solution was incubated at 37 °C with a specified concentration of candidate compounds for 5 min, and then NADPH reaction system was added to initiate metabolic reaction. The reaction was terminated at a series of time points by adding acetonitrile solution containing an internal standard compound. Centrifuge at 12,000 rpm for 20 min, take the supernatant solution, and place it in a vacuum centrifuge to dry. After acetonitrile was dissolved, the supernatant solution was centrifugated, and the remaining compounds were quantified by LC-MS to evaluate the metabolic stability of liver microsomes.

BTK(h) = molecular target: T1, BTK(h) (Homo sapiens, UniProt Q06187); experiment: Kinase profiling; type: biochemical
T1 construct: purchased Eurofins Cerep SA (KinaseProfiler)
Method: (§1) 380 kinases inhibitory activities of SKLB-D18 were conducted by Eurofins Cerep SA. The result was illustrated by kinase tree (http://www.kinhub.org/kinmap/).

CDK3/cyclinE(h) = molecular target: T2, CDK3/cyclinE(h) (Homo sapiens, UniProt Q00526); experiment: Kinase profiling; type: biochemical
T2 construct: purchased Eurofins Cerep SA (KinaseProfiler)
Method: as §1

CDK5/p35(h) = molecular target: T3, CDK5/p35(h) (Homo sapiens, UniProt Q00535); experiment: Kinase profiling; type: biochemical
T3 construct: purchased Eurofins Cerep SA (KinaseProfiler)
Method: as §1

CDKL3(h) = molecular target: T4, CDKL3(h) (Homo sapiens, UniProt Q8IVW4); experiment: Kinase profiling; type: biochemical
T4 construct: purchased Eurofins Cerep SA (KinaseProfiler)
Method: as §1

CaMKIδ(h) = molecular target: T5, CaMKIδ(h) (Homo sapiens, UniProt Q8IU85); experiment: Kinase profiling; type: biochemical
T5 construct: purchased Eurofins Cerep SA (KinaseProfiler)
Method: as §1

EphA2(h) = molecular target: T6, EphA2(h) (Homo sapiens, UniProt P29317); experiment: Kinase profiling; type: biochemical
T6 construct: purchased Eurofins Cerep SA (KinaseProfiler)
Method: as §1

EphA5(h) = molecular target: T7, EphA5(h) (Homo sapiens, UniProt P54756); experiment: Kinase profiling; type: biochemical
T7 construct: purchased Eurofins Cerep SA (KinaseProfiler)
Method: as §1

IRAK4(h) = molecular target: T8, IRAK4(h) (Homo sapiens, UniProt Q9NWZ3); experiment: Kinase profiling; type: biochemical
T8 construct: purchased Eurofins Cerep SA (KinaseProfiler)
Method: as §1

JNK1α1(h) = molecular target: T9, JNK1α1(h) (Homo sapiens, UniProt P45983); experiment: Kinase profiling; type: biochemical
T9 construct: purchased Eurofins Cerep SA (KinaseProfiler)
Method: as §1

JNK3(h) = molecular target: T10, JNK3(h) (Homo sapiens, UniProt P53779); experiment: Kinase profiling; type: biochemical
T10 construct: purchased Eurofins Cerep SA (KinaseProfiler)
Method: as §1

Lck(h) = molecular target: T11, Lck(h) (Homo sapiens, UniProt P06239); experiment: Kinase profiling; type: biochemical
T11 construct: purchased Eurofins Cerep SA (KinaseProfiler)
Method: as §1

Met(h) = molecular target: T12, Met(h) (Homo sapiens, UniProt P08581); experiment: Kinase profiling; type: biochemical
T12 construct: purchased Eurofins Cerep SA (KinaseProfiler)
Method: as §1

NIM1(h) = molecular target: T13, NIM1(h) (Homo sapiens, UniProt Q8IY84); experiment: Kinase profiling; type: biochemical
T13 construct: purchased Eurofins Cerep SA (KinaseProfiler)
Method: as §1

PDGFRα(h) = molecular target: T14, PDGFRα(h) (Homo sapiens, UniProt P16234); experiment: Kinase profiling; type: biochemical
T14 construct: purchased Eurofins Cerep SA (KinaseProfiler)
Method: as §1

PKAcβ(h) = molecular target: T15, PKAcβ(h) (Homo sapiens, UniProt P22694); experiment: Kinase profiling; type: biochemical
T15 construct: purchased Eurofins Cerep SA (KinaseProfiler)
Method: as §1

PKCε(h) = molecular target: T16, PKCε(h) (Homo sapiens, UniProt Q02156); experiment: Kinase profiling; type: biochemical
T16 construct: purchased Eurofins Cerep SA (KinaseProfiler)
Method: as §1

PRK1(h) = molecular target: T17, PRK1(h) (Homo sapiens, UniProt Q16512); experiment: Kinase profiling; type: biochemical
T17 construct: purchased Eurofins Cerep SA (KinaseProfiler)
Method: as §1

STK33(h) = molecular target: T18, STK33(h) (Homo sapiens, UniProt Q9BYT3); experiment: Kinase profiling; type: biochemical
T18 construct: purchased Eurofins Cerep SA (KinaseProfiler)
Method: as §1

Syk(h) = molecular target: T19, Syk(h) (Homo sapiens, UniProt P43405); experiment: Kinase profiling; type: biochemical
T19 construct: purchased Eurofins Cerep SA (KinaseProfiler)
Method: as §1

TTBK1(h) = molecular target: T20, TTBK1(h) (Homo sapiens, UniProt Q5TCY1); experiment: Kinase profiling; type: biochemical
T20 construct: purchased Eurofins Cerep SA (KinaseProfiler)
Method: as §1

VRK2(h) = molecular target: T21, VRK2(h) (Homo sapiens, UniProt Q86Y07); experiment: Kinase profiling; type: biochemical
T21 construct: purchased Eurofins Cerep SA (KinaseProfiler)
Method: as §1

ERK5 = ERK5 (Homo sapiens, UniProt Q13164); experiment: Isothermal titration calorimetry (ITC) assay; type: binding; design: ERK5 (residues 48–395) containing His and GST tags was cloned into the pFastBac vector; His (cleaved yes); GST (cleaved yes); made in house; host or cells: Sf9 insect cells (baculovirus); conditions: 25 °C
Method: The full-length human ERK1 or ERK2 with His-tag was cloned into a pET28a vector. hERK1/2 were expressed in Escherichia coli BL21(DE3), and then were purified using sequential Ni-NTA and Superdex 200 column steps. The SEC purified sample was then concentrated to 10 mg/ml and stored at −80 °C with buffer containing 20 mM HEPES pH 7.5, 150 mM NaCl. ERK5 (residues 48–395) containing His and GST tags was cloned into the pFastBac vector, and the recombinant plasmid was extracted. The recombinant plasmid was transformed into the DH10bac strain, and monoclonal was selected for culture. The recombinant Bacmid was then extracted according to the instructions of the Baculovirus Shuttle Vector Bacmid Mini Preparation Kit (Beyotime) and validated by PCR. 1 × 10^6/well Sf9 cells were counted for transfection and then amplified to obtain P3 ERK5 recombinant baculovirus. It was added to 2 × 10^6/mL Sf9 cells and incubated at 27 °C for 72 h on a shaker to express ERK5. Cells were lysed and supernatant was collected on a Ni-NTA for purification, and a 250 mM imidazole eluate was collected. […]
Calorimetric experiments were carried on an Affinity ITC (Waters, Shanghai) with 1 mM SKLB-D18 and 0.1 mM ERK1/2/5. […] The data were analyzed with the NanoAnalyze software employing a single binding site model. […]

T4 sequence (Q8IVW4 whole entry): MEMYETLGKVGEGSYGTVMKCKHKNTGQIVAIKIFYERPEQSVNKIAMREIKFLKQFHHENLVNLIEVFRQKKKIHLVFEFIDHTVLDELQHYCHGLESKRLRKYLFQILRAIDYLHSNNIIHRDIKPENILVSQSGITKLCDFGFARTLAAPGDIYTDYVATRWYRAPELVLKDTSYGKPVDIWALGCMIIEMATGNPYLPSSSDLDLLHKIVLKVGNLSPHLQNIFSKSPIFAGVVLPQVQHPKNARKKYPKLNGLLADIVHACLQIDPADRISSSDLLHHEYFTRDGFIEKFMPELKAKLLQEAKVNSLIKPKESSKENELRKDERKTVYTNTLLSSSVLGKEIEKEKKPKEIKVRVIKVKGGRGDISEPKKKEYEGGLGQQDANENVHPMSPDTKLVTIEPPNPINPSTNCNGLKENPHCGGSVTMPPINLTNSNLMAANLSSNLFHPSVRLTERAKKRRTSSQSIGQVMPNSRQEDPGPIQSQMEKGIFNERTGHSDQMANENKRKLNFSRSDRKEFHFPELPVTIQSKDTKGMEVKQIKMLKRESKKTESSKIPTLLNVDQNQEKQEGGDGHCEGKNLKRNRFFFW
Chain of ERK5 (Q13164 48-395): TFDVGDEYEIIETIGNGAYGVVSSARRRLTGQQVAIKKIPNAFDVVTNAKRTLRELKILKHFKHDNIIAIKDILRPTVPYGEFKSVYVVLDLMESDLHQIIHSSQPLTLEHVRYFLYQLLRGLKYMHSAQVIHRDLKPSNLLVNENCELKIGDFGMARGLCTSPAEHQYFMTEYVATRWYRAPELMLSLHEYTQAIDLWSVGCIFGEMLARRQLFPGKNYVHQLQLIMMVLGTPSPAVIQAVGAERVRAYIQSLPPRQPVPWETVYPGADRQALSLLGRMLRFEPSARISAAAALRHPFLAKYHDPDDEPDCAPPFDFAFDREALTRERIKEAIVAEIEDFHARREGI
T17 sequence (Q16512 whole entry): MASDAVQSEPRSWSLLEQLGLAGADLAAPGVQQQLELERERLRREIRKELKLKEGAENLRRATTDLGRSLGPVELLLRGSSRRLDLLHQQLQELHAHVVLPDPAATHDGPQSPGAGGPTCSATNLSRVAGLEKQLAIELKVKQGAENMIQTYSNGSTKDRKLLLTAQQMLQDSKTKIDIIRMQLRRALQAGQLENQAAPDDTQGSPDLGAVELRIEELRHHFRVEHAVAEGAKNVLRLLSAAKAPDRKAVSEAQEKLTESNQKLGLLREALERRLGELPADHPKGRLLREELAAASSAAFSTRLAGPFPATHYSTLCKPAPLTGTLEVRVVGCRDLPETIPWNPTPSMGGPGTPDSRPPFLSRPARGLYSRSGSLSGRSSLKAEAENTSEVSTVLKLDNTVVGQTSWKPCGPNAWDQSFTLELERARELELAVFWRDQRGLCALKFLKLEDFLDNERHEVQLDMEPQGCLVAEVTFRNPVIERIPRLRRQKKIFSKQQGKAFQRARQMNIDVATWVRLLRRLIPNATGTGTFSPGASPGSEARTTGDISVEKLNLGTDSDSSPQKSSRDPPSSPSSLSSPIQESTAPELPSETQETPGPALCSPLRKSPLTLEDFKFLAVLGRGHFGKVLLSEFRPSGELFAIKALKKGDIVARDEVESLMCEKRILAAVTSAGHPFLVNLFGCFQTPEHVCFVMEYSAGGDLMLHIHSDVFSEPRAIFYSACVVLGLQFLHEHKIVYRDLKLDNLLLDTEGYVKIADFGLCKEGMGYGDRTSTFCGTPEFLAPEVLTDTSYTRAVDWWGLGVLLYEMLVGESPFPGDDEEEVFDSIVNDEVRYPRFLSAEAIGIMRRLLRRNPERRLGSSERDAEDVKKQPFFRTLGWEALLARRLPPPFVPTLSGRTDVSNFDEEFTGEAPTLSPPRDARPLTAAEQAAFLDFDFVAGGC
T11 sequence (P06239 whole entry): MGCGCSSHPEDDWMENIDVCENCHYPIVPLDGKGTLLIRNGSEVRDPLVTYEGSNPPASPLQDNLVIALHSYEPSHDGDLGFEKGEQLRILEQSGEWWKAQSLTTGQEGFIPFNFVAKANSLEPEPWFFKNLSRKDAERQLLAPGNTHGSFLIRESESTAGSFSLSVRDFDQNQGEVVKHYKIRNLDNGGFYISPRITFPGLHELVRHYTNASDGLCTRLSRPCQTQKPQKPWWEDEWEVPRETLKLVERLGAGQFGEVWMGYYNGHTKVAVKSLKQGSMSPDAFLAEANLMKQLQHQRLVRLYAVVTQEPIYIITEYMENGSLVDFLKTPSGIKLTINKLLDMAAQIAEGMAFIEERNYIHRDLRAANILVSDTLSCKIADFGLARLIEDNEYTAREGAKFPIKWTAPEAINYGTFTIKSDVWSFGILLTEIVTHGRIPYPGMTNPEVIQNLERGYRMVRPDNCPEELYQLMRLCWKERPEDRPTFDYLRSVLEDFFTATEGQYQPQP
T20 sequence (Q5TCY1 whole entry): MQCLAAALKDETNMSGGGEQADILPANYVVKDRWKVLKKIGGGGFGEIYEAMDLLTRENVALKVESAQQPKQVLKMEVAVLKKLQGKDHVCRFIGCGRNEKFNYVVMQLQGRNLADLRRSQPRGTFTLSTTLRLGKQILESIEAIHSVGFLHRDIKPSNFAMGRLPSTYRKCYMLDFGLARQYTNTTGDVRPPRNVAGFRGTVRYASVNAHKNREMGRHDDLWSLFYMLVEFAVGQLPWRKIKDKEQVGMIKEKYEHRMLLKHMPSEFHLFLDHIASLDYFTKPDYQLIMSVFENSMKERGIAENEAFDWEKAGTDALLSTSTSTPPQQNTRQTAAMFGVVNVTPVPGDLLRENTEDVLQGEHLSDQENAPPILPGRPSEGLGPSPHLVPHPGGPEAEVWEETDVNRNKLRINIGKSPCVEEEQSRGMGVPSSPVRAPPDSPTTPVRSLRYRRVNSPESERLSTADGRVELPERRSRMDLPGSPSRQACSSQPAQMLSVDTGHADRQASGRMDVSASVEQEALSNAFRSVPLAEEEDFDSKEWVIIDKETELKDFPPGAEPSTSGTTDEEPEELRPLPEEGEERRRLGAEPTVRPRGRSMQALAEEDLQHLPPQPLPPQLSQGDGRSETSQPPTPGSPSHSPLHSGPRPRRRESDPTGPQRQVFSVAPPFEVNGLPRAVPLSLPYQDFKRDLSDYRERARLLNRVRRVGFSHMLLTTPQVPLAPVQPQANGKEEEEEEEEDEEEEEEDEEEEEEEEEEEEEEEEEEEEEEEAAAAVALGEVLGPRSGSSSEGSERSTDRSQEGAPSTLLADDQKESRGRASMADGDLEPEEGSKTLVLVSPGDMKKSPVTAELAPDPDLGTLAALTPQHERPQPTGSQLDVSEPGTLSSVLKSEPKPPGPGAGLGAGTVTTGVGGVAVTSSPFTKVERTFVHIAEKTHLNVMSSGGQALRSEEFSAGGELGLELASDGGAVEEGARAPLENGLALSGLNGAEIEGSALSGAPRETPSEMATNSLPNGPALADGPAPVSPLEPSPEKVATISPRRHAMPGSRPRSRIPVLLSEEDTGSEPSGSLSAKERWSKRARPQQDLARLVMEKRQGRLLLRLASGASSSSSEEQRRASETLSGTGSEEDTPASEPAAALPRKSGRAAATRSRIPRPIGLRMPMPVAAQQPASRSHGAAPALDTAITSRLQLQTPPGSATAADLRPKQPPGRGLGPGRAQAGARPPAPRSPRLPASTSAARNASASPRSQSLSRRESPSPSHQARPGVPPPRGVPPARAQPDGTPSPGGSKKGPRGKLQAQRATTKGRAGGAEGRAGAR
T21 sequence (Q86Y07 whole entry): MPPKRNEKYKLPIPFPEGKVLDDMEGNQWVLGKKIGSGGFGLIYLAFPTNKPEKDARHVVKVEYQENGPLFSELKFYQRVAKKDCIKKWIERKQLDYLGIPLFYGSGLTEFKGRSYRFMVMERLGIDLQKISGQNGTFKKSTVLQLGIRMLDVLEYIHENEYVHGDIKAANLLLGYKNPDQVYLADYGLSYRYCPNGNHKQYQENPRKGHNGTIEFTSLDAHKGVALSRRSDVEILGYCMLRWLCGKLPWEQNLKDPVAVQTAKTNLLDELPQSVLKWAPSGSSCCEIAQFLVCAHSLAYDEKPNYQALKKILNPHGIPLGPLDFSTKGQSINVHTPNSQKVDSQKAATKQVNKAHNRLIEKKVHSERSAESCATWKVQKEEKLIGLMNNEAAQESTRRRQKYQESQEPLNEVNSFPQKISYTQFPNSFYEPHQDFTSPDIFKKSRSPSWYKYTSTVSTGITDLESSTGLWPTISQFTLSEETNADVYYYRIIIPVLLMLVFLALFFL
T10 sequence (P53779 whole entry): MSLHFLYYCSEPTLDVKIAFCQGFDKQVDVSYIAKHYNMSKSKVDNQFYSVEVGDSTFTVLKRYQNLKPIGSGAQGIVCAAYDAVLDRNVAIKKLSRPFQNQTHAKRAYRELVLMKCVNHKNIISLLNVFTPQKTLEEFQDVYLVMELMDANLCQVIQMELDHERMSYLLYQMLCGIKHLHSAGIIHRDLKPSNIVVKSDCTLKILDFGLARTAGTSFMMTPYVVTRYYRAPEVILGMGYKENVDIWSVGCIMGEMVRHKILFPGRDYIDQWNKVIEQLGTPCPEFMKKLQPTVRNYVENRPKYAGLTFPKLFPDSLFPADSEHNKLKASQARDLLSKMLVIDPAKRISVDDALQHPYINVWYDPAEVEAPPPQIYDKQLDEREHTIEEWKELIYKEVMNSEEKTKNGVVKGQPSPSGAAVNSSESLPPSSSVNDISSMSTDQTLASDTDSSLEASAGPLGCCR

CN(C)Cc1cccc(Nc2ncc(Cl)c(-c3csc(C(=O)NN4CCOCC4)c3)n2)c1 [SKLB-D18, 4-(5-chloro-2-((3-((dimethylamino)methyl)phenyl)amino)pyrimidin-4-yl)-N-morpholinothiophene-2-carboxamide]
Residual rate (%) ([1]; SD rat liver microsomes): 25.8% | T1/2 ([1]; SD rat liver microsomes): 32.51 min | microsomal CLint ([1]; SD rat liver microsomes): 42.6 µL/min/mg | half-life ([1]; SD, rat, liver microsomes): 32.5 min | Residual rate (%) ([1]; human liver microsomes): 69.42% | half-life ([1]; human liver microsomes): 91.6 min | microsomal CLint ([1]; human liver microsomes): 15.1 µL/min/mg | inhibition at 1 µM (BTK(h)): 8% | inhibition at 1 µM (CDK3/cyclinE(h)): 16% | inhibition at 1 µM (CDK5/p35(h)): 57% | inhibition at 1 µM (CDKL3(h)): 54% | inhibition at 1 µM (CaMKIδ(h)): 47% | inhibition at 1 µM (EphA2(h)): 17% | inhibition at 1 µM (EphA5(h)): 3% | inhibition at 1 µM (IRAK4(h)): 47% | inhibition at 1 µM (JNK1α1(h)): 40% | inhibition at 1 µM (JNK3(h)): 66% | inhibition at 1 µM (Lck(h)): 63% | inhibition at 1 µM (Met(h)): 61% | inhibition at 1 µM (NIM1(h)): 50% | inhibition at 1 µM (PDGFRα(h)): 37% | inhibition at 1 µM (PKAcβ(h)): 12% | inhibition at 1 µM (PKCε(h)): 14% | inhibition at 1 µM (PRK1(h)): 73% | inhibition at 1 µM (STK33(h)): 63% | inhibition at 1 µM (Syk(h)): 38% | inhibition at 1 µM (TTBK1(h)): -5% | inhibition at 1 µM (VRK2(h)): -3% | Kd (ERK5): 0.468 µM
